# Reference: PubChem BioAssay (NCI)
#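 Cells were grown in 96-well plates and exposed to each compound for 48 hours at five concentrations; endpoints were interpolated linearly between bracketing concentrations, or set to the highest concentration if not reached. At the GI50, growth is halved. TGI marks complete inhibition of growth.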
# Columns and labels:
# Experiment in all cases: growth of human tumour cells (NCI), 48 h
# SNB-75 CNS = test system: SNB-75 CNS
# SF-295 CNS = test system: SF-295 CNS
# CCRF-CEM leukemia = test system: CCRF-CEM leukemia
# SF-539 CNS = test system: SF-539 CNS
# SK-MEL-5 melanoma = test system: SK-MEL-5 melanoma
# NCI-H522 lung = test system: NCI-H522 lung
# IGROV1 ovarian = test system: IGROV1 ovarian
# NCI-H460 lung = test system: NCI-H460 lung
# MDA-MB-231 breast = test system: MDA-MB-231 breast
# NCI/ADR-RES ovarian = test system: NCI/ADR-RES ovarian
# DU-145 prostate = test system: DU-145 prostate
# SK-OV-3 ovarian = test system: SK-OV-3 ovarian
# RXF 393 renal = test system: RXF 393 renal
# LOX IMVI melanoma = test system: LOX IMVI melanoma
# SNB-19 CNS = test system: SNB-19 CNS
# COLO 205 colon = test system: COLO 205 colon
# HCT-15 colon = test system: HCT-15 colon
# MCF7 breast = test system: MCF7 breast
# EKVX NSCLC = test system: EKVX NSCLC
# HT29 colon = test system: HT29 colon
# SW-620 colon = test system: SW-620 colon
# 786-0 renal = test system: 786-0 renal
# OVCAR-8 ovarian = test system: OVCAR-8 ovarian
# CAKI-1 renal = test system: CAKI-1 renal
# A549 NSCLC = test system: A549 NSCLC
# M14 melanoma = test system: M14 melanoma
# K-562 leukemia = test system: K-562 leukemia
# HOP-62 NSCLC = test system: HOP-62 NSCLC
# HCC-2998 colon = test system: HCC-2998 colon
# PC-3 prostate = test system: PC-3 prostate
# T-47D breast = test system: T-47D breast
# SK-MEL-2 melanoma = test system: SK-MEL-2 melanoma
# BT-549 breast = test system: BT-549 breast
# U251 CNS = test system: U251 CNS
# A498 renal = test system: A498 renal
# NCI-H226 lung = test system: NCI-H226 lung
# HOP-92 NSCLC = test system: HOP-92 NSCLC
# UACC-257 melanoma = test system: UACC-257 melanoma
# KM12 colon = test system: KM12 colon
# HL-60(TB) leukemia = test system: HL-60(TB) leukemia
# UACC-62 melanoma = test system: UACC-62 melanoma
# MALME-3M melanoma = test system: MALME-3M melanoma
# HCT-116 colon = test system: HCT-116 colon
# SK-MEL-28 melanoma = test system: SK-MEL-28 melanoma
# SN12C renal = test system: SN12C renal
# MOLT-4 leukemia = test system: MOLT-4 leukemia
# RPMI-8226 leukemia = test system: RPMI-8226 leukemia
# UO-31 renal = test system: UO-31 renal
# SR leukemia = test system: SR leukemia
# OVCAR-5 ovarian = test system: OVCAR-5 ovarian
# ACHN renal = test system: ACHN renal
# HS 578T breast = test system: HS 578T breast
# OVCAR-3 ovarian = test system: OVCAR-3 ovarian
# OVCAR-4 ovarian = test system: OVCAR-4 ovarian
# NCI-H23 lung = test system: NCI-H23 lung
# SF-268 CNS = test system: SF-268 CNS
# TK-10 renal = test system: TK-10 renal
compound,measurement,setting,value
CN(C)c1ccc(/C=C(\C#N)c2cc3ccccc3n2C)cc1,GI50,SNB-75 CNS,56.2 nM
same,TGI,SNB-75 CNS,1750 nM
same,GI50,SF-295 CNS,78.7 nM
same,GI50,CCRF-CEM leukemia,244 nM
same,TGI,CCRF-CEM leukemia,> 100000 nM
same,GI50,SF-539 CNS,208 nM
same,TGI,SF-539 CNS,713 nM
same,GI50,SK-MEL-5 melanoma,606 nM
same,TGI,SK-MEL-5 melanoma,12100 nM
same,GI50,NCI-H522 lung,122 nM
same,TGI,NCI-H522 lung,1290 nM
same,GI50,IGROV1 ovarian,143 nM
same,TGI,IGROV1 ovarian,> 100000 nM
same,GI50,NCI-H460 lung,353 nM
same,TGI,NCI-H460 lung,4400 nM
same,GI50,MDA-MB-231 breast,509 nM
same,TGI,MDA-MB-231 breast,> 100000 nM
same,GI50,NCI/ADR-RES ovarian,89.5 nM
same,TGI,NCI/ADR-RES ovarian,> 100000 nM
same,GI50,DU-145 prostate,505 nM
same,TGI,DU-145 prostate,> 100000 nM
same,GI50,SK-OV-3 ovarian,532 nM
same,TGI,SK-OV-3 ovarian,> 100000 nM
same,GI50,RXF 393 renal,133 nM
same,TGI,RXF 393 renal,549 nM
same,GI50,LOX IMVI melanoma,425 nM
same,TGI,LOX IMVI melanoma,> 100000 nM
same,GI50,SNB-19 CNS,357 nM
same,TGI,SNB-19 CNS,> 100000 nM
same,GI50,COLO 205 colon,258 nM
same,TGI,COLO 205 colon,1720 nM
same,GI50,HCT-15 colon,68.7 nM
same,TGI,HCT-15 colon,> 100000 nM
same,GI50,MCF7 breast,37.9 nM
same,TGI,MCF7 breast,> 100000 nM
same,GI50,EKVX NSCLC,636 nM
same,TGI,EKVX NSCLC,> 100000 nM
same,GI50,HT29 colon,121 nM
same,TGI,HT29 colon,5640 nM
same,GI50,SW-620 colon,89.8 nM
same,TGI,SW-620 colon,> 100000 nM
same,GI50,786-0 renal,418 nM
same,TGI,786-0 renal,> 100000 nM
same,GI50,OVCAR-8 ovarian,405 nM
same,TGI,OVCAR-8 ovarian,> 100000 nM
same,GI50,CAKI-1 renal,85.6 nM
same,TGI,CAKI-1 renal,> 100000 nM
same,GI50,A549 NSCLC,226 nM
same,TGI,A549 NSCLC,> 100000 nM
same,GI50,M14 melanoma,75 nM
same,TGI,M14 melanoma,> 100000 nM
same,GI50,K-562 leukemia,40.7 nM
same,TGI,K-562 leukemia,> 100000 nM
same,GI50,HOP-62 NSCLC,296 nM
same,TGI,HOP-62 NSCLC,> 100000 nM
same,GI50,HCC-2998 colon,293 nM
same,TGI,HCC-2998 colon,> 43800 nM
same,GI50,PC-3 prostate,204 nM
same,TGI,PC-3 prostate,> 100000 nM
same,GI50,T-47D breast,204 nM
same,TGI,T-47D breast,> 100000 nM
same,GI50,SK-MEL-2 melanoma,328 nM
same,TGI,SK-MEL-2 melanoma,> 100000 nM
same,GI50,BT-549 breast,618 nM
same,TGI,BT-549 breast,> 100000 nM
same,GI50,U251 CNS,357 nM
same,TGI,U251 CNS,> 100000 nM
same,GI50,A498 renal,41.2 nM
same,TGI,A498 renal,604 nM
same,GI50,NCI-H226 lung,1460 nM
same,TGI,NCI-H226 lung,> 100000 nM
same,GI50,HOP-92 NSCLC,556 nM
same,TGI,HOP-92 NSCLC,> 23000 nM
same,GI50,UACC-257 melanoma,2980 nM
same,TGI,UACC-257 melanoma,> 100000 nM
same,GI50,KM12 colon,211 nM
same,TGI,KM12 colon,> 100000 nM
same,GI50,HL-60(TB) leukemia,93.1 nM
same,GI50,UACC-62 melanoma,103 nM
same,TGI,UACC-62 melanoma,> 100000 nM
same,GI50,MALME-3M melanoma,133 nM
same,TGI,MALME-3M melanoma,> 100000 nM
same,GI50,HCT-116 colon,101 nM
same,TGI,HCT-116 colon,> 100000 nM
same,GI50,SK-MEL-28 melanoma,1070 nM
same,TGI,SK-MEL-28 melanoma,> 100000 nM
same,GI50,SN12C renal,482 nM
same,TGI,SN12C renal,> 100000 nM
same,GI50,MOLT-4 leukemia,320 nM
same,TGI,MOLT-4 leukemia,> 100000 nM
same,GI50,RPMI-8226 leukemia,351 nM
same,TGI,RPMI-8226 leukemia,> 100000 nM
same,GI50,UO-31 renal,820 nM
same,TGI,UO-31 renal,> 100000 nM
same,GI50,SR leukemia,39.6 nM
same,GI50,OVCAR-5 ovarian,487 nM
same,TGI,OVCAR-5 ovarian,> 100000 nM
same,GI50,ACHN renal,386 nM
same,TGI,ACHN renal,> 100000 nM
same,GI50,HS 578T breast,361 nM
same,TGI,HS 578T breast,> 100000 nM
same,GI50,OVCAR-3 ovarian,123 nM
same,TGI,OVCAR-3 ovarian,1270 nM
same,GI50,OVCAR-4 ovarian,701 nM
same,TGI,OVCAR-4 ovarian,> 100000 nM
same,GI50,NCI-H23 lung,560 nM
same,TGI,NCI-H23 lung,> 100000 nM
same,GI50,SF-268 CNS,2180 nM
same,TGI,SF-268 CNS,> 100000 nM
same,GI50,TK-10 renal,> 100000 nM
same,TGI,TK-10 renal,> 100000 nM
N=C(N)c1ccc(-c2ccc(-c3cc(Cl)cc(Cl)c3)s2)cc1,GI50,HL-60(TB) leukemia,1070 nM
same,TGI,HL-60(TB) leukemia,2800 nM
same,GI50,SR leukemia,284 nM
same,TGI,SR leukemia,> 100000 nM
